Test results as given in patent US8889705B2, “Noscapine analogs and their use in treating cancers” (Emory University, priority 2007, dated 2014).
“Also recorded” adds a separate entry of the source.

How the values were obtained:
CEM cells = assay: Cell cycle analysis (propidium iodide, flow cytometry); format: cell-based, human; conditions: 25 μM
Protocol: (§1) The flow cytometric evaluation of the cell cycle status was performed as described previously (Zhou et al., 2003). Briefly, 2×10^6 cells were centrifuged, washed twice with ice-cold PBS, and fixed in 70% ethanol. Tubes containing the cell pellets were stored at 4° C. for at least 24 hours. Cells were then centrifuged at 1000×g for 10 min and the supernatant was discarded. The pellets were washed twice with 5 ml of PBS and then stained with 0.5 ml of propidium iodide (0.1% in 0.6% Triton-X in PBS) and 0.5 ml of RNase A (2 mg/ml) for 45 minutes in dark. Samples were then analyzed on a FACSCalibur flow cytometer (Beckman Coulter Inc., Fullerton, Calif.).

CEM/VLB100 cells [1] = assay: as above; format: cell-based, human; conditions: CEM/VLB100, 25 μM
Protocol: as §1

1A9 cells = assay: as above; format: cell-based, human; conditions: 1A9, 50 μM
Protocol: as §1

CEM/VM-1-5 cells [2] = assay: as above; format: cell-based, human; conditions: CEM/VM-1-5, 25 μM
Protocol: as §1

1A9/PTX22 cells = assay: as above; format: cell-based, human; conditions: 1A9/PTX22, 50 μM
Protocol: as §1

[3] = test system: normal human fibroblast cells; assay: as above; format: cell-based; conditions: 100 μM
Protocol: as §1

[4] = test system: CEM, CEM/VLB100, CEM/VM-1-5, 1A9 and 1A9/PTX22 cells; assay: Immunofluorescence microscopy (microtubule and nuclear morphology); format: cell-based, human; conditions: 72 hours
Protocol: Cells adhered to poly-L-lysine coated coverslips were treated with 9-nitro-nos for 72 hours. After treatment, cells were fixed with cold (−20° C.) methanol for 5 min and then washed with phosphate-buffered saline (PBS) for 5 min. Non-specific sites were blocked by incubating with 100 μl of 2% BSA in PBS at 37° C. for 15 min. A mouse monoclonal antibody against α-tubulin (DM1A, Sigma) was diluted 1:500 in 2% BSA/PBS (100 μl) and incubated with the coverslips for 2 hours at 37° C. Cells were then washed with 2% BSA/PBS for 10 min at room temperature before incubating with a 1:200 dilution of a fluorescein-isothiocyanate (FITC)-labeled goat anti-mouse IgG antibody (Jackson ImmunoResearch, Inc., West Grove, Pa.) at 37° C. for 1 hour. Coverslips were then rinsed with 2% BSA/PBS for 10 min and incubated with propidium iodide (0.5 μg/ml) for 15 min at room temperature before they were mounted with Aquamount (Lerner Laboratories, Pittsburgh, Pa.) containing 0.01% 1,4-diazobicyclo(2,2,2)octane (DABCO, Sigma). Cells were then examined using confocal microscopy for microtubule morphology, and nuclear morphology to visualize DNA fragmentation (at least 100 cells were examined per condition).

CEM/VLB100 cells [5] = assay: In vitro cell proliferation MTS assay; format: cell-based; conditions: Homo sapiens, CEM/VLB100, 72 hours
Protocol: (§2) Suspension cells (CEM, CEMNLB100 and CEM/VM-1-5) were cultured in RPMI-1640 media containing 10% FBS and then seeded into 96-well plates at a density of 5×10^3 cells per well and were treated with increasing gradient concentrations of 9-nitro-nos for 72 hours. Measurement of cell proliferation was performed colorimetrically by 3-(4,5-dimethylthiazol-2-yl)-5-(3-carboxymethoxyphenyl)-2-(4-sulphophenyl)-2H-tetrazolium, inner salt (MTS) assay, using the CellTiter96 AQueous One Solution Reagent (Promega, Madison, Wis.). Cells were exposed to MTS for 3 hours and absorbance was measured using a microplate reader (Molecular Devices, Sunnyvale, Calif.) at an optical density (OD) of 490 nm. The percentage of cell survival as a function of drug concentration for both the assays was then plotted to determine the IC50 value, which stands for the drug concentration needed to prevent cell proliferation by 50%.

CEM/VM-1-5 cells [6] = assay: In vitro cell proliferation MTS assay; format: cell-based; conditions: Homo sapiens, CEM/VM-1-5, 72 hours
Protocol: as §2

**Q.** Which results are given for `COc1ccc2c(c1OC)C(=O)O[C@@H]2[C@H]1c2c(c([N+](=O)[O-])c3c(c2OC)OCO3)CCN1C` [9-nitro-nos, (S)-6,7-dimethoxy-3-((R)-4-methoxy-6-methyl-9-nitro-5,6,7,8-tetrahydro-[1,3]dioxolo[4,5-g]isoquinolin-5-yl)isobenzofuran-1(3H)-one]?
**A.** G0/G1 (CEM cells; 0 h): 45.5%; G2/M (CEM cells; 0 h): 20.9%; S (CEM cells; 0 h): 25.0%; Sub-G1 (CEM cells; 0 h): 0.25%; G0/G1 (CEM cells; 24 h): 24.8%; G2/M (CEM cells; 24 h): 34.2%; S (CEM cells; 24 h): 10.0%; Sub-G1 (CEM cells; 24 h): 6.5%; G0/G1 (CEM cells; 48 h): 19.7%; G2/M (CEM cells; 48 h): 40.0%; S (CEM cells; 48 h): 8.1%; Sub-G1 (CEM cells; 48 h): 23.8%; G0/G1 (CEM cells; 72 h): 13.9%; G2/M (CEM cells; 72 h): 16.9%; S (CEM cells; 72 h): 8.9%; Sub-G1 (CEM cells; 72 h): 44.3%; G0/G1 (CEM/VLB100 cells [1]; 0 h): 46.9%; G2/M (CEM/VLB100 cells [1]; 0 h): 25.7%; S (CEM/VLB100 cells [1]; 0 h): 17.6%; Sub-G1 (CEM/VLB100 cells [1]; 0 h): 3.6%; G0/G1 (CEM/VLB100 cells [1]; 24 h): 25.5%; G2/M (CEM/VLB100 cells [1]; 24 h): 36.0%; S (CEM/VLB100 cells [1]; 24 h): 17.7%; Sub-G1 (CEM/VLB100 cells [1]; 24 h): 14.8%; G0/G1 (CEM/VLB100 cells [1]; 48 h): 23.7%; G2/M (CEM/VLB100 cells [1]; 48 h): 30.2%; S (CEM/VLB100 cells [1]; 48 h): 9.3%; Sub-G1 (CEM/VLB100 cells [1]; 48 h): 30.7%; G0/G1 (CEM/VLB100 cells [1]; 72 h): 8.7%; G2/M (CEM/VLB100 cells [1]; 72 h): 12.5%; S (CEM/VLB100 cells [1]; 72 h): 4.5%; Sub-G1 (CEM/VLB100 cells [1]; 72 h): 56.1%; G0/G1 (1A9 cells; 0 h): 50.0%; G2/M (1A9 cells; 0 h): 21.2%; S (1A9 cells; 0 h): 21.8%; Sub-G1 (1A9 cells; 0 h): 0.7%; G0/G1 (1A9 cells; 24 h): 30.6%; G2/M (1A9 cells; 24 h): 34.2%; S (1A9 cells; 24 h): 14.3%; Sub-G1 (1A9 cells; 24 h): 12.0%; G0/G1 (1A9 cells; 48 h): 28.6%; G2/M (1A9 cells; 48 h): 17.2%; S (1A9 cells; 48 h): 10.6%; Sub-G1 (1A9 cells; 48 h): 38.0%; G0/G1 (1A9 cells; 72 h): 16.7%; G2/M (1A9 cells; 72 h): 9.0%; S (1A9 cells; 72 h): 9.6%; Sub-G1 (1A9 cells; 72 h): 56.3%; G0/G1 (CEM/VM-1-5 cells [2]; 0 h): 36.0%; G2/M (CEM/VM-1-5 cells [2]; 0 h): 30.7%; S (CEM/VM-1-5 cells [2]; 0 h): 19.4%; Sub-G1 (CEM/VM-1-5 cells [2]; 0 h): 3.4%; G0/G1 (CEM/VM-1-5 cells [2]; 24 h): 25.4%; G2/M (CEM/VM-1-5 cells [2]; 24 h): 41.0%; S (CEM/VM-1-5 cells [2]; 24 h): 13.0%; Sub-G1 (CEM/VM-1-5 cells [2]; 24 h): 18.8%; G0/G1 (CEM/VM-1-5 cells [2]; 48 h): 13.7%; G2/M (CEM/VM-1-5 cells [2]; 48 h): 15.0%; S (CEM/VM-1-5 cells [2]; 48 h): 11.0%; Sub-G1 (CEM/VM-1-5 cells [2]; 48 h): 58.0%; G0/G1 (CEM/VM-1-5 cells [2]; 72 h): 10.5%; G2/M (CEM/VM-1-5 cells [2]; 72 h): 12.2%; S (CEM/VM-1-5 cells [2]; 72 h): 8.7%; Sub-G1 (CEM/VM-1-5 cells [2]; 72 h): 63.0%; G0/G1 (1A9/PTX22 cells; 0 h): 57.0%; G2/M (1A9/PTX22 cells; 0 h): 20.4%; S (1A9/PTX22 cells; 0 h): 8.8%; Sub-G1 (1A9/PTX22 cells; 0 h): 3.5%; G0/G1 (1A9/PTX22 cells; 24 h): 27.3%; G2/M (1A9/PTX22 cells; 24 h): 31.4%; S (1A9/PTX22 cells; 24 h): 4.7%; Sub-G1 (1A9/PTX22 cells; 24 h): 30.0%; G0/G1 (1A9/PTX22 cells; 48 h): 5.9%; G2/M (1A9/PTX22 cells; 48 h): 44.3%; S (1A9/PTX22 cells; 48 h): 3.4%; Sub-G1 (1A9/PTX22 cells; 48 h): 44.6%; G0/G1 (1A9/PTX22 cells; 72 h): 14.1%; G2/M (1A9/PTX22 cells; 72 h): 13.7%; S (1A9/PTX22 cells; 72 h): 5.7%; Sub-G1 (1A9/PTX22 cells; 72 h): 59.0%; cell cycle profile of normal human fibroblast cells [3]: did not observe any perturbations in the cell cycle profile; also recorded: did not alter the cell cycle progression profile; cellular and nuclear morphology (apoptosis) [4]: extensive terminal apoptotic figures with fragmented DNA pieces and perturbed microtubule arrays; IC50 (CEM/VLB100 cells [5]): 8.1 µM; IC50 (CEM/VM-1-5 cells [6]): 6.9 µM
